Data set [1] can be described thus: Measurement of Log P values by HPLC on reversed phase columns (EEC directive 79/831 Annex V.A8). Format: physicochemical. The note with it: reversed phase HPLC column, method [a]: LC-UV, acidic range, 0.1% formic acid in water and acetonitrile as eluent. As to the method: A-1.1. Measurement of Log P Values
Measurement of Log P values as provided herein was performed according to EEC directive 79/831 Annex V.A8 by HPLC (High Performance Liquid Chromatography) on reversed phase columns with the following methods:
^[a] Log P value is determined by measurement of LC-UV, in an acidic range, with 0.1% formic acid in water and acetonitrile as eluent (linear gradient from 10% acetonitrile to 95% acetonitrile).
^[b] Log P value is determined by measurement of LC-UV, in a neutral range, with 0.001 molar ammonium acetate solution in water and acetonitrile as eluent (linear gradient from 10% acetonitrile to 95% acetonitrile).
^[c] Log P value is determined by measurement of LC-UV, in an acidic range, with 0.1% phosphoric acid and acetonitrile as eluent (linear gradient from 10% acetonitrile to 95% acetonitrile).
If more than one Log P value is available within the same method, all the values are given and separated by “+”. […]

Data set [2] relates to Alternaria alternata. In words: Alternaria alternata in vitro cell test. Format: cell-based. The settings on record: 120 h, 20 ppm of active ingredient, liquid culture, 5 days incubation, spectrometric measurement of mycelium growth, read-out: efficacy (inhibition of fungal growth). As to the method: (§1) B-6. Alternaria alternata In Vitro Cell Test [table] Fungicides were solubilized in DMSO and the solution used to prepare the required range of concentrations. The final concentration of DMSO used in the assay was ≤1%. A spore suspension of A. alternata was prepared and diluted to the desired spore density. Fungicides were evaluated for their ability to inhibit spore germination and mycelium growth in liquid culture assay. The compounds were added in the desired concentration to the culture medium with spores. After 5 days incubation, fungi-toxicity of compounds was determined by spectrometric measurement of mycelium growth. Inhibition of fungal growth was determined by comparing the absorbance values in wells containing the fungicides with the absorbance in control wells without fungicides.

Data set [3] has as its system Colletotrichum lindemuthianum. The data set can be described thus: B-8. Colletotrichum lindemuthianum in vitro cell test. Format: cell-based. The note with it: 144 h, 20 ppm of active ingredient, 6 days incubation, liquid culture, absorbance, read-out: efficacy (inhibition of fungal growth). The method, then:
as §1, with “B-8. Colletotrichum lindemuthianum In” for “B-6. Alternaria alternata In”, “of C. lindemuthianum” for “of A. alternata”, “inhibit spores” for “inhibit spore”, “After 6” for “After 5”

The subject of data set [4] is Pyrenophora teres. The data set can be described thus: B-10. Pyrenophora teres in vitro cell test. Format: cell-based. The note with it: 144 h, 20 ppm of active ingredient, 6 days incubation, liquid culture, absorbance, read-out: efficacy (inhibition of fungal growth). The method, then:
as §1, with “B-10. Pyrenophora teres” for “B-6. Alternaria alternata”, “P. teres” for “A. alternata”, “6” for “5”

Data set [5] has as its system Botrytis cinerea. The data set can be described thus: B-11. Botrytis cinerea in vitro cell test. Format: cell-based. The note with it: 144 h, 20 ppm of active ingredient, 6 days incubation, liquid culture, absorbance, read-out: efficacy (inhibition of fungal growth). The method, then: as §1, with “B-11. Botrytis cinerea” for “B-6. Alternaria alternata”, “B. cinerea” for “A. alternata”, “6” for “5”

The subject of data set [6] is Alternaria brassicae. In words: In vivo preventive test on Alternaria brassicae (leaf spot on radish or cabbage). The settings on record: 500 ppm of active ingredient, preventive spray on radish or cabbage, evaluated 3 to 4 days after inoculation, read-out: efficacy. The method, then: B-1. In Vivo Preventive Test on Alternaria brassicae (Leaf Spot on Radish or Cabbage) [table] The active ingredients were made soluble and homogenized in a mixture of Dimethyl sulfoxide/Acetone/Tween® 80 and then diluted in water to the desired concentration. The young plants of radish or cabbage were treated by spraying the active ingredient prepared as described above. Control plants were treated only with an aqueous solution of Acetone/Dimethyl sulfoxide/Tween® 80. After 24 hours, the plants were contaminated by spraying the leaves with an aqueous suspension of Alternaria brassicae spores. The contaminated radish or cabbage plants were incubated for 3 to 4 days at 20° C. and at 100% relative humidity.

Data set [7] has as its system Botrytis cinerea. In words: In vivo preventive test on Botrytis cinerea (grey mould). The settings on record: 500 ppm of active ingredient, preventive spray on gherkin or cabbage, evaluated 4 to 5 days after inoculation, read-out: efficacy. The method, then: B-2. In Vivo Preventive Test on Botrytis cinerea (Grey Mould) [table] The active ingredients were made soluble and homogenized in a mixture of Dimethyl sulfoxide/Acetone/Tween® 80 and then diluted in water to the desired concentration. The young plants of gherkin or cabbage were treated by spraying the active ingredient prepared as described above. Control plants were treated only with an aqueous solution of Acetone/Dimethyl sulfoxide/Tween® 80. After 24 hours, the plants were contaminated by spraying the leaves with an aqueous suspension of Botrytis cinerea spores. The contaminated gherkin plants were incubated for 4 to 5 days at 17° C. and at 90% relative humidity. The contaminated cabbage plants were incubated for 4 to 5 days at 20° C. and at 100% relative humidity.

Drawing on US20230192617A1, “AZABICYCLIC(THIO)AMIDES AS FUNGICIDAL COMPOUNDS” (Bayer CropScience Aktiengesellschaft, priority 2020, published 2023), this text covers chromatographic logP, inhibition and pest or weed control for 23 compounds.

`C[C@H](NC(=O)c1c(Oc2cccc(C(F)(F)F)c2)nnc2ccccc12)c1ccc(Cl)s1` (racemic) [I-080] displayed a chromatographic logP in data set [1] of 4.1. The inhibition at 20 ppm in data set [2], in data set [3], in data set [4] and in data set [5] was 90 to 100% each time.

As to `O=C(N[C@H]1CCCc2sc(C3CC3)nc21)c1c(Oc2cccc(C(F)(F)F)c2)nnc2ccccc12` (racemic) [I-091], in data set [1], the chromatographic logP was determined as 3.92. The inhibition at 20 ppm in data set [2] is 70 to 79%; in data set [3], 80 to 89%; in data set [4] it was 90 to 100%; in data set [5] it was 90 to 100%.

For the compound `O=C(N[C@H]1CCCc2ccc(Br)cc21)c1c(Oc2cccc(C(F)(F)F)c2)nnc2ccccc12` (racemic) [I-096], the chromatographic logP in data set [1] was 4.54. Moreover, the inhibition at 20 ppm in data set [3], in data set [4] and in data set [5] was 90 to 100% in each case.

In data set [1], `O=C(N[C@H]1CCOc2ccc(F)cc21)c1c(Oc2cccc(C(F)(F)F)c2)nnc2ccccc12` (racemic) [I-165] displayed a chromatographic logP of 3.69. Moreover, the inhibition at 20 ppm in data set [4] was in the range of 90 to 100%.

Consider `CCc1cccc2c1OCC[C@@H]2NC(=O)c1c(Oc2cccc(C(F)(F)F)c2)nnc2ccccc12` (racemic) [I-168], for which the chromatographic logP in data set [1] was 4.45. For the same compound, the inhibition at 20 ppm in data set [3], in data set [4] and in data set [5] was 90 to 100% each time.

Consider `Cc1ccc2c(c1)[C@@H](NC(=O)c1c(Oc3cccc(C(F)(F)F)c3)nnc3ccccc13)CC(C)(C)O2` (racemic) [I-173], for which the chromatographic logP in data set [1] is 4.44. The inhibition at 20 ppm in data set [4] and in data set [5] was 90 to 100% each time.

Consider `O=C(NC[C@H](F)c1ccc(Cl)c(Cl)c1)c1c(Oc2cccc(C(F)(F)F)c2)nnc2ccccc12` (racemic) [I-182], for which the chromatographic logP in data set [1] was 4.33. Besides, the inhibition at 20 ppm was in the range of 90 to 100% in data set [2], 80 to 89% in data set [3], 90 to 100% in data set [4] and 80 to 89% in data set [5].

`Cc1ccc(C(F)(F)F)cc1Oc1nnc2ccccc2c1C(=O)NC[C@H](F)c1ccc(Cl)cc1Cl` (racemic) [I-183] had a chromatographic logP in data set [1] of 4.74. In addition, the inhibition at 20 ppm in data set [4] is 70 to 79%.

The compound `O=C(N[C@H]1CCCc2cc(Br)ccc21)c1c(Oc2cccc(C(F)(F)F)c2)nnc2ccccc12` (racemic) [I-193] came in with a chromatographic logP in data set [1] of 4.66. For the same compound, the inhibition at 20 ppm was in the range of 70 to 79% in data set [2], 90 to 100% in data set [3], 90 to 100% in data set [4] and 90 to 100% in data set [5].

As for `CC1(C)Cc2cc(Cl)c(F)cc2[C@@H](NC(=O)c2c(Oc3cccc(C(F)(F)F)c3)nnc3ccccc23)C1` (racemic) [I-197], the chromatographic logP in data set [1] is 4.82. Besides, the inhibition at 20 ppm in data set [4] and in data set [5] was 90 to 100% in each case.

In data set [1], `O=C(NCC(F)(F)c1ccc(Cl)cn1)c1c(Oc2cccc(C(F)F)c2)nnc2ccccc12` [I-036] gave a chromatographic logP of 3.2. The pest or weed control at 500 ppm in data set [6] and in data set [7] was 90 to 100% each time. In addition, the inhibition at 20 ppm in data set [2] and in data set [3] was 90 to 100% in each case.

On to `O=C(NCC(F)(F)c1ccc(Cl)cc1)c1c(Oc2cccc(C(F)(F)F)c2)cnc2ccccc12` [I-037], for which the chromatographic logP in data set [1] was 4.23. The pest or weed control at 500 ppm in data set [7] lay within 80 to 89%. Further, the inhibition at 20 ppm in data set [3] and in data set [5] was 90 to 100% throughout.

In turn, `Cc1ccc2c(C(=O)NCC(F)(F)c3ccc(Br)cc3Cl)c(Oc3cccc(C(F)(F)F)c3)nnc2c1` [I-045] registered a chromatographic logP in data set [1] of 4.64. Moreover, the pest or weed control at 500 ppm in data set [6] and in data set [7] was 90 to 100% in each case. Moreover, the inhibition at 20 ppm in data set [2] and in data set [3] was 90 to 100% in each case.

In turn, `N#Cc1ccc(CONC(=O)c2c(Oc3cccc(C(F)(F)F)c3)nnc3ccccc23)cc1` [I-088] gave a chromatographic logP in data set [1] of 3.07. Besides, the inhibition at 20 ppm in data set [3] and in data set [5] was 90 to 100% each time.

For `O=C(NCCc1cccc2[nH]ccc12)c1c(Oc2cccc(C(F)(F)F)c2)nnc2ccccc12` [I-161], the inhibition at 20 ppm in data set [4] and in data set [5] was 90 to 100% throughout.

`CC(C)CON(Cc1ccccc1)C(=O)c1c(Oc2cccc(C(F)(F)F)c2)nnc2ccccc12` [I-170] showed a chromatographic logP in data set [1] of 4.86. Further, the inhibition at 20 ppm in data set [3] lay in the range of 70 to 79%; in data set [5], 90 to 100%.

In turn, `O=C(N[C@H]1CCS(=O)(=O)c2ccccc21)c1c(Oc2cccc(C(F)(F)F)c2)nnc2ccccc12` [I-174] yielded a chromatographic logP in data set [1] of 2.98. Also, the inhibition at 20 ppm in data set [3] lay within 80 to 89%; in data set [4], 80 to 89%; in data set [5] it was 90 to 100%.

Turning to `COc1cc(OC)nc(Oc2cnc3ccccc3c2C(=O)NCC(F)(F)c2ccc(C)cc2C)n1` [I-187], the chromatographic logP in data set [1] came out at 3.74. The inhibition at 20 ppm in data set [2] lay in the range of 70 to 79%; in data set [4], 90 to 100%.

Turning to `O=C(NCCc1cnc(C(F)(F)F)nc1)c1c(Oc2cccc(C(F)(F)F)c2)nnc2ccccc12` [I-195], the chromatographic logP in data set [1] was 3.22. The inhibition at 20 ppm in data set [4] was in the range of 90 to 100%.

Take `O=C(NCC(F)(F)c1cc(Cl)sc1Cl)c1c(Oc2cccc(C(F)(F)F)c2)nnc2ccccc12` [I-199]: the chromatographic logP in data set [1] came to 4.68. The inhibition at 20 ppm in data set [4] fell in the range of 90 to 100%; in data set [5], 80 to 89%.

On to `O=C(NCCOc1ccc(C(F)(F)F)cc1Cl)c1c(Oc2cccc(C(F)(F)F)c2)nnc2ccccc12` [I-203], for which the chromatographic logP in data set [1] was determined as 4.33. Also, the results for the inhibition at 20 ppm in data set [4] and in data set [5] were 90 to 100% and 70 to 79%, respectively.

Take `Cc1cc(C)n(CCNC(=O)c2c(Oc3cccc(C(F)(F)F)c3)nnc3ccccc23)n1` [I-240]: in data set [1], the chromatographic logP was 2.78. Further, the inhibition at 20 ppm was in the range of 90 to 100% in data set [4] and 80 to 89% in data set [5].

The compound `O=C(NCCc1ccc2[nH]ccc2c1)c1c(Oc2cccc(C(F)(F)F)c2)nnc2ccccc12` [I-249] gave a chromatographic logP in data set [1] of 3.3. Besides, the inhibition at 20 ppm in data set [4] and in data set [5] was 90 to 100% each time.
